Experiments:
[1] = test system: DU-145 (Prostate Carcinoma); assay: Bliss excess, mean over the matrix (fraction); higher = more synergy
In short: (§1)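 Bliss excess equals the observed combination effect minus the expected value EA + EB − EA·EB, where EA and EB are the effects of each agent alone. Combination Emax is the second-highest inhibition within the matrix. Inhibition was scaled from CellTiter-Glo 2.0 luminescence, with 0 set by vehicle wells and 1 by blank wells, after 72 hours of two-drug dosing of cells plated in 1536-well plates.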

[2] = test system: OACM5-1 (Esophageal Adenocarcinoma); assay: as above
In short: as §1

[3] = test system: EFO-21 (Ovarian Carcinoma); assay: combination Emax (second highest fraction inhibited in the dose matrix, 72 h); higher = more inhibition; extreme values may be limits of the assay
In short: as §1

[4] = test system: EJM (Plasma Cell Myeloma); assay: as above
In short: as §1

EW-1 (Ewing's Sarcoma) = assay: as above
In short: as §1

[5] = test system: G-401 (Other Solid Carcinomas); assay: as above
In short: as §1

[6] = test system: HCC1500 (Breast Carcinoma); assay: as above
In short: as §1

[7] = test system: HCC1937 (Breast Carcinoma); assay: as above
In short: as §1

[8] = test system: HCC2998 (Colorectal Carcinoma); assay: as above
In short: as §1

Hey (Ovarian Carcinoma) = assay: as above
In short: as §1

[9] = test system: LC-1-sq (Squamous Cell Lung Carcinoma); assay: as above
In short: as §1

[10] = test system: ME-180 (Cervical Carcinoma); assay: as above
In short: as §1

[11] = test system: ML-2 (Acute Myeloid Leukemia); assay: as above
In short: as §1

[12] = test system: MV-4-11 (Acute Myeloid Leukemia); assay: as above
In short: as §1

[13] = test system: NCI-H1092 (Small Cell Lung Carcinoma); assay: as above
In short: as §1

[14] = test system: NCI-H1993 (Lung Adenocarcinoma); assay: as above
In short: as §1

[15] = test system: NCI-H2122 (Lung Adenocarcinoma); assay: as above
In short: as §1

SK-N-AS (Neuroblastoma) = assay: as above
In short: as §1

[16] = test system: SW872 (Other Solid Carcinomas); assay: as above
In short: as §1

[17] = test system: SW982 (Other Solid Carcinomas); assay: as above
In short: as §1

| SMILES | Bliss excess [1] | Bliss excess [2] | combination Emax [3] | combination Emax [4] | combination Emax (EW-1 (Ewing's Sarcoma)) | combination Emax [5] | combination Emax [6] | combination Emax [7] | combination Emax [8] | combination Emax (Hey (Ovarian Carcinoma)) | combination Emax [9] | combination Emax [10] | combination Emax [11] | combination Emax [12] | combination Emax [13] | combination Emax [14] | combination Emax [15] | combination Emax (SK-N-AS (Neuroblastoma)) | combination Emax [16] | combination Emax [17] |
| --- | --- | --- | --- | --- | --- | --- | --- | --- | --- | --- | --- | --- | --- | --- | --- | --- | --- | --- | --- | --- |
| CN(CCO)CC[C@H](CSc1ccccc1)Nc1ccc(S(=O)(=O)NC(=O)c2ccc(N3CCC([C@@H](O)c4ccccc4-c4ccc(Cl)cc4)CC3)cc2)cc1S(=O)(=O)C(F)(F)F [AZD4320] + CN(C)CCCOc1ccc(-c2ccc3ncc4c(c3c2)n(C2CCOCC2)c(=O)n4C)cn1 [AZD0156] (first compound max 1 µM, 7x7, partner max 1 µM) | -0.0284 | -0.0016 | 0.179 | 0.162 | 0.705 | 0.266 | 0.998 | 0.439 | 0.554 | 0.256 | 0.217 | 0.246 | 0.963 | 1 | 0.862 | 0.742 | 0.24 | 0.109 | 0.148 | 0.225 |
| COc1nnc2ccc(N3CCC(c4ccc(OCCN5CCN(C)C(=O)[C@H]5C)cc4)CC3)nn12 [AZD5153] + C=CCn1c(=O)c2cnc(Nc3ccc(N4CCN(C)CC4)cc3)nc2n1-c1cccc(C(C)(C)O)n1 [AZD1775] (first compound max 1 µM, partner max 1 µM) | -0.0286 | 0.0128 | 0.51 | 0.867 | 0.883 | 0.914 | 0.402 | 0.472 | 0.92 | 0.655 | 0.665 | 0.68 | 1 | 1 | 0.684 | 0.545 | 0.993 | 0.669 | 0.593 | 0.825 |
| COc1nnc2ccc(N3CCC(c4ccc(OCCN5CCN(C)C(=O)[C@H]5C)cc4)CC3)nn12 [AZD5153] + CC1(C)CCC(CN2CCN(c3ccc(C(=O)NS(=O)(=O)c4ccc(NCC5CCOCC5)c([N+](=O)[O-])c4)c(Oc4cnc5[nH]ccc5c4)c3)CC2)=C(c2ccc(Cl)cc2)C1 [Venetoclax] (first compound max 1 µM, 7x7, partner max 1 µM) | -0.0181 | -0.0458 | 0.425 | 0.543 | 0.56 | 0.821 | 0.755 | 0.344 | 0.685 | 0.523 | 0.603 | 0.49 | 1 | 1 | 0.478 | 0.444 | 0.78 | 0.415 | 0.561 | 0.767 |
| COc1nnc2ccc(N3CCC(c4ccc(OCCN5CCN(C)C(=O)[C@H]5C)cc4)CC3)nn12 [AZD5153] + CCN(CCO)CCCOc1ccc2c(Nc3cc(CC(=O)Nc4cccc(F)c4)[nH]n3)ncnc2c1 [AZD2811] (first compound max 1 µM, 7x7, partner max 1 µM) | -0.0241 | 0.0367 | 0.425 | 0.613 | 0.64 | 0.806 | 0.41 | 0.383 | 0.752 | 0.618 | 0.609 | 0.524 | 1 | 1 | 0.374 | 0.479 | 0.853 | 0.447 | 0.578 | 0.807 |
| COc1nnc2ccc(N3CCC(c4ccc(OCCN5CCN(C)C(=O)[C@H]5C)cc4)CC3)nn12 [AZD5153] + C[C@@H]1COCCN1C2=NC(=NC(=C2)C3(CC3)[S@](=N)(=O)C)C4=C5C=CNC5=NC=C4 [AZD6738] (first compound max 1 µM, 7x7, partner max 10 µM) | -0.0094 | 0.0593 | 0.488 | 0.867 | 0.953 | 0.924 | 0.454 | 0.434 | 0.926 | 0.796 | 0.783 | 0.696 | 1 | 1 | 0.523 | 0.738 | 0.981 | 0.716 | 0.634 | 0.843 |
| COc1nnc2ccc(N3CCC(c4ccc(OCCN5CCN(C)C(=O)[C@H]5C)cc4)CC3)nn12 [AZD5153] + Cc1c2c(nn1C)CSCc1cc(n(C)n1)CSc1cc(c3ccccc3c1)OCCCc1c(C(=O)O)n(C)c3c-2c(Cl)ccc13 [AZD5991] (first compound max 1 µM, 7x7, partner max 1 µM) | -0.021 | 0.0114 | 0.414 | 0.89 | 0.751 | 0.956 | 0.696 | 0.507 | 1 | 0.598 | 0.771 | 0.438 | 1 | 1 | 0.865 | 0.552 | 0.913 | 0.739 | 0.697 | 0.771 |
| COc1nnc2ccc(N3CCC(c4ccc(OCCN5CCN(C)C(=O)[C@H]5C)cc4)CC3)nn12 [AZD5153] + Cn1cnc2c(F)c(Nc3ccc(Br)cc3Cl)c(C(=O)NOCCO)cc21 [Selumetinib] (first compound max 1 µM, 7x7, partner max 10 µM) | 0.0192 | -0.0306 | 0.439 | 0.619 | 0.618 | 0.841 | 0.387 | 0.396 | 0.95 | 0.726 | 0.677 | 0.592 | 1 | 1 | 0.192 | 0.915 | 1 | 0.663 | 0.784 | 0.789 |
| Cc1c2c(nn1C)CSCc1cc(n(C)n1)CSc1cc(c3ccccc3c1)OCCCc1c(C(=O)O)n(C)c3c-2c(Cl)ccc13 [AZD5991] + C1CN(CCC1(C(=O)N[C@@H](CCO)C2=CC=C(C=C2)Cl)N)C3=NC=NC4=C3C=CN4 [Capivasertib] (first compound max 1 µM, 7x7, partner max 3 µM) | 0.007 | -0.0123 | 0.179 | 0.977 | 0.415 | 0.56 | 0.377 | 0.456 | 0.902 | 0.156 | 0.217 | 0.517 | 1 | 1 | 0.534 | 0.461 | 0.608 | 0.692 | 0.282 | 0.192 |
| Cc1c2c(nn1C)CSCc1cc(n(C)n1)CSc1cc(c3ccccc3c1)OCCCc1c(C(=O)O)n(C)c3c-2c(Cl)ccc13 [AZD5991] + C=CCn1c(=O)c2cnc(Nc3ccc(N4CCN(C)CC4)cc3)nc2n1-c1cccc(C(C)(C)O)n1 [AZD1775] (first compound max 1 µM, partner max 1 µM) | 0.0621 | -0.04 | 0.552 | 1 | 0.974 | 0.901 | 0.49 | 0.617 | 0.962 | 0.59 | 0.851 | 0.52 | 1 | 1 | 0.696 | 0.629 | 0.979 | 0.964 | 0.374 | 0.798 |
| Cc1c2c(nn1C)CSCc1cc(n(C)n1)CSc1cc(c3ccccc3c1)OCCCc1c(C(=O)O)n(C)c3c-2c(Cl)ccc13 [AZD5991] + CC1(C)CCC(CN2CCN(c3ccc(C(=O)NS(=O)(=O)c4ccc(NCC5CCOCC5)c([N+](=O)[O-])c4)c(Oc4cnc5[nH]ccc5c4)c3)CC2)=C(c2ccc(Cl)cc2)C1 [Venetoclax] (first compound max 1 µM, 7x7, partner max 1 µM) | -0.0185 | 0.0228 | 0.207 | 0.959 | 0.684 | 0.565 | 1 | 0.316 | 0.893 | 0.133 | 0.322 | 0.286 | 1 | 1 | 0.989 | 0.325 | 0.823 | 0.871 | 0.312 | 0.192 |
| Cc1c2c(nn1C)CSCc1cc(n(C)n1)CSc1cc(c3ccccc3c1)OCCCc1c(C(=O)O)n(C)c3c-2c(Cl)ccc13 [AZD5991] + CCN(CCO)CCCOc1ccc2c(Nc3cc(CC(=O)Nc4cccc(F)c4)[nH]n3)ncnc2c1 [AZD2811] (first compound max 1 µM, 7x7, partner max 1 µM) | -0.0282 | 0.0416 | 0.343 | 0.949 | 0.482 | 0.615 | 0.53 | 0.4 | 0.94 | 0.331 | 0.428 | 0.343 | 1 | 1 | 0.626 | 0.232 | 0.883 | 0.808 | 0.249 | 0.688 |
| Cc1c2c(nn1C)CSCc1cc(n(C)n1)CSc1cc(c3ccccc3c1)OCCCc1c(C(=O)O)n(C)c3c-2c(Cl)ccc13 [AZD5991] + CN(C)CCCOc1ccc(-c2ccc3ncc4c(c3c2)n(C2CCOCC2)c(=O)n4C)cn1 [AZD0156] (first compound max 1 µM, 7x7, partner max 1 µM) | 0.0146 | -0.0029 | 0.247 | 0.965 | 0.375 | 0.733 | 0.53 | 0.333 | 0.952 | 0.254 | 0.258 | 0.278 | 1 | 1 | 0.562 | 0.474 | 0.656 | 0.614 | 0.226 | 0.258 |

From the supplement of paper PMC11061612
